What was measured:
Experiment in all cases: relative viability (nuclei count vs DMSO), 5 days (fraction); higher = more cells survive
Dasatinib + Olaparib = compound: Cc1nc(Nc2ncc(C(=O)Nc3c(C)cccc3Cl)s2)cc(N2CCN(CCO)CC2)n1 [Dasatinib] + O=C(c1cc(Cc2n[nH]c(=O)c3ccccc23)ccc1F)N1CCN(C(=O)C2CC2)CC1 [Olaparib] (partner 8 µM)
Summary of the method: (§1)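 Five library-drug doses in √10 steps were combined with a fixed anchor-drug dose, or a single drug was given alone, by pin tool to lung cancer cell lines in 1536-well plates the day after seeding. Nuclei were stained and counted after 5 days. Relative viability is the nuclei count in treated wells over that in vehicle wells, taken as the median of duplicate plates.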

ALW-II-49-7 + Alpelisib = compound: Cc1ccc(C(=O)Nc2cccc(C(F)(F)F)c2)cc1Nc1cncc(C(N)=O)c1 [ALW-II-49-7] + Cc1nc(NC(=O)N2CCC[C@H]2C(N)=O)sc1-c1ccnc(C(C)(C)C(F)(F)F)c1 [Alpelisib] (partner 2 µM)
Summary of the method: as §1

Dasatinib + Bortezomib = compound: Cc1nc(Nc2ncc(C(=O)Nc3c(C)cccc3Cl)s2)cc(N2CCN(CCO)CC2)n1 [Dasatinib] + CC(C)C[C@H](NC(=O)[C@H](Cc1ccccc1)NC(=O)c1cnccn1)B(O)O [Bortezomib] (partner 0.002 µM)
Summary of the method: as §1

Dasatinib + Phenformin = compound: Cc1nc(Nc2ncc(C(=O)Nc3c(C)cccc3Cl)s2)cc(N2CCN(CCO)CC2)n1 [Dasatinib] + N=C(N)NC(=N)NCCc1ccccc1 [Phenformin] (partner 250 µM)
Summary of the method: as §1

Row | Cell Line | relative viability (Dasatinib + Olaparib; first compound 0.005 µM) | relative viability (Dasatinib + Olaparib; first compound 0.01581 µM) | relative viability (Dasatinib + Olaparib; first compound 0.05 µM) | relative viability (Dasatinib + Olaparib; first compound 0.1581 µM) | relative viability (Dasatinib + Olaparib; first compound 0.5 µM) | relative viability (ALW-II-49-7 + Alpelisib; first compound 0.08 µM) | relative viability (ALW-II-49-7 + Alpelisib; first compound 0.253 µM) | relative viability (ALW-II-49-7 + Alpelisib; first compound 0.8 µM) | relative viability (ALW-II-49-7 + Alpelisib; first compound 2.53 µM) | relative viability (ALW-II-49-7 + Alpelisib; first compound 8 µM) | relative viability (Dasatinib + Bortezomib; first compound 0.005 µM) | relative viability (Dasatinib + Bortezomib; first compound 0.01581 µM) | relative viability (Dasatinib + Bortezomib; first compound 0.05 µM) | relative viability (Dasatinib + Bortezomib; first compound 0.1581 µM) | relative viability (Dasatinib + Bortezomib; first compound 0.5 µM) | relative viability (Dasatinib + Phenformin; first compound 0.005 µM) | relative viability (Dasatinib + Phenformin; first compound 0.01581 µM) | relative viability (Dasatinib + Phenformin; first compound 0.05 µM) | relative viability (Dasatinib + Phenformin; first compound 0.1581 µM) | relative viability (Dasatinib + Phenformin; first compound 0.5 µM)
1 | 201T | 0.783 | 0.753 | 0.707 | 0.636 | 0.445 | 1 | 1.02 | 1.02 | 0.992 | 1.02 | 1.04 | 0.938 | 1.01 | 0.982 | 0.623 | 0.446 | 0.33 | 0.338 | 0.341 | 0.221
2 | A549 | 0.312 | 0.306 | 0.269 | 0.308 | 0.116 | 0.82 | 0.756 | 0.728 | 0.802 | 0.712 | – | – | – | – | – | 0.207 | 0.165 | 0.175 | 0.137 | 0.0717
3 | A-427 | 0.704 | 0.646 | 0.637 | 0.574 | 0.563 | 1.25 | 1.06 | 1.13 | 1.21 | 1.12 | 1 | 0.983 | 0.839 | 0.663 | 0.524 | 0.326 | 0.262 | 0.277 | 0.266 | 0.225
4 | ABC-1 | 0.867 | 0.767 | 0.786 | 0.621 | 0.841 | 0.945 | 0.937 | 1.06 | 0.967 | 0.973 | 0.295 | 0.303 | 0.247 | 0.269 | 0.351 | 0.22 | 0.256 | 0.245 | 0.221 | 0.238
5 | BEN | 0.755 | 0.641 | 0.724 | 0.549 | 0.456 | 0.993 | 0.93 | 0.936 | – | 1.17 | 0.628 | 0.439 | 0.425 | 0.315 | 0.362 | 0.249 | 0.213 | 0.249 | 0.241 | 0.206
6 | CAL-12T | 0.689 | 0.688 | 0.877 | 0.755 | 0.575 | 1.26 | 1.14 | 1.2 | 1.21 | 1.26 | 0.992 | 1.06 | 0.875 | 0.354 | 0.207 | 0.574 | 0.554 | 0.411 | 0.273 | 0.174
7 | COR-L23 | 0.338 | 0.294 | 0.325 | 0.208 | 0.211 | 0.756 | 0.536 | 0.741 | 0.898 | 0.667 | 0.938 | 0.849 | 0.862 | 0.654 | 0.646 | 0.431 | 0.348 | 0.384 | 0.374 | 0.321
8 | COR-L 105 | 0.517 | 0.494 | 0.617 | 0.452 | 0.336 | 1.14 | 1.03 | 0.894 | 0.93 | 0.943 | 0.611 | 0.51 | 0.498 | 0.318 | 0.273 | 0.441 | 0.378 | 0.312 | 0.278 | 0.16
9 | Calu-6 | 0.57 | 0.434 | 0.449 | 0.357 | 0.34 | 1.04 | 0.984 | 0.95 | 0.91 | 0.791 | 0.869 | 0.855 | 0.746 | 0.642 | 0.513 | – | – | – | – | –
10 | ChaGo-K-1 | 0.424 | 0.404 | 0.426 | 0.393 | 0.325 | – | – | – | – | – | 0.847 | 1.03 | 0.99 | 0.891 | 0.864 | 0.546 | 0.463 | 0.41 | 0.442 | 0.377
11 | EBC-1 | 0.803 | 0.619 | 0.612 | 0.613 | 0.602 | 0.791 | 0.783 | 0.731 | 0.644 | 0.522 | 0.583 | 0.459 | 0.486 | 0.49 | 0.436 | – | – | – | – | –
12 | EKVX | 0.852 | 0.669 | 0.676 | 0.338 | 0.189 | 0.929 | 0.78 | 0.868 | 0.685 | 0.802 | 0.929 | 0.807 | 0.87 | 0.501 | 0.146 | 0.218 | 0.21 | 0.177 | 0.136 | 0.102
13 | EMC-BAC-2 | 0.462 | 0.404 | 0.447 | 0.355 | 0.301 | 0.843 | 0.703 | 0.758 | 0.715 | 0.645 | 1.06 | 0.876 | 0.734 | 0.634 | 0.367 | 0.476 | 0.326 | 0.429 | 0.224 | 0.172
14 | EPLC-272H | 0.793 | 0.681 | 0.697 | 0.33 | 0.208 | 0.92 | 0.879 | 1.02 | 1.08 | 1.06 | 0.921 | 0.89 | 0.808 | 0.864 | 0.429 | 0.313 | 0.252 | 0.386 | 0.261 | 0.0761
15 | H3255 | 0.551 | 0.604 | 0.563 | 0.476 | 0.341 | 0.828 | 0.743 | 0.73 | 0.403 | 0.511 | 0.795 | 0.749 | 0.623 | 0.504 | 0.299 | 0.312 | 0.344 | 0.341 | 0.322 | 0.274
16 | HARA | 0.822 | 0.625 | 0.517 | 0.186 | 0.188 | 0.904 | 0.883 | 0.844 | 0.834 | 0.987 | 1.19 | 0.881 | 0.897 | 0.501 | 0.184 | 0.422 | 0.39 | 0.472 | 0.273 | 0.0965
17 | HCC-15 | 0.763 | 0.764 | 0.851 | 0.733 | 0.689 | 0.901 | 0.931 | 0.949 | 0.907 | 0.845 | 1.01 | 1.01 | 1.11 | 0.965 | 0.743 | 0.482 | 0.475 | 0.462 | 0.287 | 0.269
